Read-outs that look alike come from different tables or passages of the source.
How the values were obtained:
CMK [1] = assay: cells; parameters: species or system AML cell lines (8); conditions: Homo sapiens, 72 h, read-out: CMK
M07e [2] = assay: cells; parameters: species or system AML cell lines (8); conditions: M-07e, 72 h, read-out: M07e
MOLM-13 [3] = assay: cells; parameters: species or system AML cell lines (8); Secondary HTS, 10-point dose-response in triplicate, Cell Titer Glo viability, four-parameter fit EC50; conditions: Homo sapiens; 72 h cell viability; read-out: MOLM-13
CMS [4] = assay: cells; parameters: species or system AML cell lines (8); conditions: 72 h, read-out: CMS
CHRF288-11 [5] = assay: cells; parameters: species or system AML cell lines (8); conditions: 72 h, read-out: CHRF288-11
MV4-11 [6] = assay: cells; parameters: species or system AML cell lines (8); conditions: Homo sapiens, MV4-11, 72 h, read-out: MV4-11
ML2 = assay: Secondary dose-response HTS, Cell Titer Glo; assay type: cell-based, human; conditions: for EC50: Homo sapiens
U937 [7] = assay: cells; parameters: species or system AML cell lines (8); conditions: Homo sapiens, U-937, 72 h, read-out: U937
[8] = tested on: MLLr primary AML blast samples; assay: Ex vivo drug treatment of primary AML blasts on mesenchymal stromal cells; assay type: cell-based; conditions: Homo sapiens; primary blasts on MSC, 96 h, range over patient samples
U937 [9] = assay: Secondary dose-response HTS, Cell Titer Glo; assay type: cell-based, human; conditions: for EC50: Homo sapiens, U-937
MV4-11 [10] = assay: Secondary dose-response HTS, Cell Titer Glo; assay type: cell-based, human; conditions: for EC50: Homo sapiens
M07e [11] = assay: Secondary dose-response HTS, Cell Titer Glo; assay type: cell-based, human; conditions: for EC50: Homo sapiens, M-07e
CHRF288-11 [12] = assay: Secondary dose-response HTS, Cell Titer Glo; assay type: cell-based, human; conditions: for EC50: Homo sapiens
MOLM-13 [13] = assay: Secondary dose-response HTS, Cell Titer Glo; assay type: cell-based, human; conditions: for EC50: Homo sapiens
[14] = tested on: AMKL primary AML blast samples; assay: Ex vivo drug treatment of primary AML blasts on mesenchymal stromal cells; assay type: cell-based; conditions: Homo sapiens; primary blasts on MSC, 96 h
CMS [15] = assay: Secondary dose-response HTS, Cell Titer Glo; assay type: cell-based, human; conditions: for EC50: Homo sapiens
CMK [16] = assay: Secondary dose-response HTS, Cell Titer Glo; assay type: cell-based, human; conditions: for EC50: Homo sapiens
ML-2 = assay: cells; parameters: species or system AML cell lines (8); conditions: Homo sapiens, ML-2, 72 h, read-out: ML-2
[17] = tested on: FLT3-ITD+ primary AML blast samples
[18] = secondary high-throughput screen, ML-2, read-out: average effective concentration, ML-2
[19] = secondary HTS, 72 h, average of triplicate, read-out: EC50 U937
[20] = secondary high-throughput screen, U937, read-out: average effective concentration, U937
[21] = MV4-11, secondary HTS, 72 h, average of triplicate, read-out: EC50 MV4-11
[22] = secondary high-throughput screen, MV4-11, read-out: average effective concentration, MV4-11
[23] = secondary HTS, 72 h, average of triplicate, read-out: EC50 M07e
[24] = secondary high-throughput screen, M07e, read-out: average effective concentration, M07e
[25] = ML-2, secondary HTS, 72 h, average of triplicate, read-out: EC50 ML2
[26] = secondary HTS, 72 h, average of triplicate, read-out: EC50 CHRF288-11
[27] = MOLM-13, secondary HTS, 72 h, average of triplicate, read-out: EC50 MOLM-13
[28] = secondary high-throughput screen, MOLM-13, read-out: average effective concentration, MOLM-13
[29] = secondary high-throughput screen, CMK, read-out: average effective concentration, CMK
[30] = secondary high-throughput screen, ML-2
[31] = secondary high-throughput screen, U937
[32] = secondary high-throughput screen, MV4-11
[33] = secondary high-throughput screen, […]
[34] = secondary high-throughput screen, CHRF288-11
[35] = secondary high-throughput screen, MOLM-13
[36] = secondary high-throughput screen, CMS
[37] = secondary high-throughput screen, CMK

SMILES | EC50 (CMK [1]) | EC50 (M07e [2]) | EC50 (MOLM-13 [3]) | EC50 (CMS [4]) | EC50 (CHRF288-11 [5]) | EC50 (MV4-11 [6]) | EC50 (U937 [7]) | EC50 (ML-2) | also measured
CC[C@H](NC(=O)[C@H](C)NC)C(=O)N1C[C@@H](O)C[C@H]1Cc1c(-c2[nH]c3cc(F)ccc3c2C[C@@H]2C[C@H](O)CN2C(=O)[C@H](CC)NC(=O)[C@H](C)NC)[nH]c2cc(F)ccc12 [BIRINAPANT] | > 10 µM | > 10 µM | > 10 µM | > 10 µM | > 10 µM | > 10 µM | > 10 µM |  | EC50 (ML2; [18]): 0.001 µM
CC(C)C[C@H](NC(=O)[C@H](Cc1ccccc1)NC(=O)c1cnccn1)B(O)O [Bortezomib, reference compound] |  |  |  |  |  |  |  |  | IC50 [8]: 0.0016 to 0.005 µM; EC50 (U937 [9]; [19]): 0.02 µM; EC50 (U937 [9]; [20]): 0.021 µM; EC50 (MV4-11 [10]; [21]): 0.002 µM; EC50 (MV4-11 [10]; [22]): 0.0023 µM; EC50 (M07e [11]; [23]): 0.001 µM; EC50 (M07e [11]; [24]): 0.0015 µM; EC50 (ML2; [25]): 0.001 µM; EC50 (ML2; [18]): 0.0012 µM; EC50 (CHRF288-11 [12]; [26]): 0.002 µM; EC50 (MOLM-13 [13]; [27]): 0.002 µM; EC50 (MOLM-13 [13]; [28]): 0.0017 µM; IC50 [14]: 0.02 µM; EC50 (CMS [15]; secondary HTS, 72 h, average of triplicate, read-out: EC50 CMS): 0.001 µM; EC50 (CMK [16]; CMK, secondary HTS, 72 h, average of triplicate, read-out: EC50 CMK): 0.01 µM; EC50 (CMK [16]; [29]): 0.0076 µM
O=C(O)CCCc1ccc(N(CCCl)CCCl)cc1 [CHLORAMBUCIL] |  |  |  |  |  |  |  | > 10 µM | EC50 (U937 [9]; [20]): 6.1 µM; EC50 (MV4-11 [10]; [22]): 8.4 µM; EC50 (M07e [11]; secondary high-throughput screen, […], read-out: average effective concentration, M07e): 6.9 µM; average effective concentration, ML-2 (ML2; [30]): Inactive; EC50 (CHRF288-11 [12]; HTS, secondary high-throughput screen, CHRF288-11, read-out: average effective concentration, CHRF288-11): 4.9 µM; EC50 (MOLM-13 [13]; [28]): 10 µM; EC50 (CMS [15]; HTS, secondary high-throughput screen, CMS, read-out: average effective concentration, CMS): 7 µM; EC50 (CMK [16]; [29]): 5.9 µM
O=P1(N(CCCl)CCCl)NCCCO1 (centres unmarked) [CYCLOPHOSPHAMIDE] | > 10 µM | > 10 µM | > 10 µM | > 10 µM | > 10 µM | > 10 µM | > 10 µM | > 10 µM | average effective concentration, U937 (U937 [9]): Inactive; average effective concentration, MV4-11 (MV4-11 [10]): Inactive; average effective concentration, M07e (M07e [11]): Inactive; average effective concentration, ML-2 (ML2): Inactive; average effective concentration, CHRF288-11 (CHRF288-11 [12]): Inactive; average effective concentration, MOLM-13 (MOLM-13 [13]): Inactive; average effective concentration, CMS (CMS [15]): Inactive; average effective concentration, CMK (CMK [16]): Inactive
CO[C@H]1C[C@@H]2CC[C@@H](C)[C@@](O)(O2)C(=O)C(=O)N2CCCC[C@H]2C(=O)O[C@H]([C@H](C)C[C@@H]2CC[C@@H](OCCO)[C@H](OC)C2)CC(=O)[C@H](C)/C=C(\C)[C@@H](O)[C@@H](OC)C(=O)[C@H](C)C[C@H](C)/C=C/C=C/C=C/1C [EVEROLIMUS] | > 10 µM | > 10 µM | > 10 µM | > 10 µM | > 10 µM | > 10 µM | > 10 µM | > 10 µM | 
Cc1c(CN2CCN(C(=O)[C@H](C)O)CC2)sc2c(N3CCOCC3)nc(-c3cnc(N)nc3)nc12 [GDC-0980] |  | > 10 µM | > 10 µM | > 10 µM | > 10 µM | > 10 µM | > 10 µM | > 10 µM | EC50 (CMK [16]; [29]): 0.52 µM
O=P1(NCCCl)OCCCN1CCCl (centres unmarked) [IFOSFAMIDE] | > 10 µM | > 10 µM | > 10 µM | > 10 µM | > 10 µM | > 10 µM | > 10 µM | > 10 µM | 
Cc1oncc1C(=O)Nc1ccc(C(F)(F)F)cc1 [LEFLUNOMIDE] | > 10 µM | > 10 µM | > 10 µM | > 10 µM | > 10 µM | > 10 µM | > 10 µM | > 10 µM | 
COC1=CC(=O)O[C@@H](/C=C/c2ccc3c(c2)OCO3)C1 [METHYSTICIN] | > 10 µM | > 10 µM | > 10 µM | > 10 µM | > 10 µM | > 10 µM | > 10 µM | > 10 µM | average effective concentration, U937 (U937 [9]; [31]): Inactive; average effective concentration, MV4-11 (MV4-11 [10]; [32]): Inactive; average effective concentration, M07e (M07e [11]; [33]): Inactive; average effective concentration, ML-2 (ML2; [30]): Inactive; average effective concentration, CHRF288-11 (CHRF288-11 [12]; [34]): Inactive; average effective concentration, MOLM-13 (MOLM-13 [13]; [35]): Inactive; average effective concentration, CMS (CMS [15]; [36]): Inactive; average effective concentration, CMK (CMK [16]; [37]): Inactive
CCc1ccc(CCOc2ccc(CC3SC(=O)NC3=O)cc2)nc1 (centres unmarked) [PIOGLITAZONE] | > 10 µM | > 10 µM | > 10 µM | > 10 µM | > 10 µM | > 10 µM | > 10 µM | > 10 µM | 
Cc1[nH]c2ccccc2c1CCNCc1ccc(/C=C/C(=O)NO)cc1 [Panobinostat, reference compound] |  |  |  |  |  |  |  |  | IC50 [8]: 0.0009 to 0.0033 µM; EC50 (U937 [9]; [19]): 0.01 µM; EC50 (MV4-11 [10]; [21]): 0.13 µM; EC50 (M07e [11]; [23]): 0.005 µM; EC50 (M07e [11]; [24]): 0.00464 µM; EC50 (ML2; [25]): 0.01 µM; EC50 (ML2; [18]): 0.012 µM; EC50 (CHRF288-11 [12]; [26]): 0.01 µM; EC50 (MOLM-13 [13]; [27]): 0.18 µM; IC50 [14]: 0.014 µM; EC50 (CMS [15]; HTS, 72 h, read-out: EC50 CMS): 0.03 µM; EC50 (CMS [15]; HTS, read-out: average effective concentration, CMS): 0.028 µM; EC50 (CMK [16]; CMK, 72 h, read-out: EC50 CMK): 0.003 µM; EC50 (CMK [16]; CMK, read-out: average effective concentration, CMK): 0.00285 µM
NC(=O)c1ncn([C@@H]2O[C@H](CO)[C@@H](O)[C@H]2O)n1 [RIBAVIRIN] | > 10 µM |  | > 10 µM | > 10 µM | > 10 µM | > 10 µM | > 10 µM | > 10 µM | EC50 (M07e [11]; [24]): 9.3 µM
Cn1c(COP(=O)(NCCBr)NCCBr)cnc1[N+](=O)[O-] [TH-302] | > 10 µM | > 10 µM | > 10 µM | > 10 µM | > 10 µM | > 10 µM | > 10 µM | > 10 µM | average effective concentration, U937 (U937 [9]; [31]): Inactive; average effective concentration, MV4-11 (MV4-11 [10]; [32]): Inactive; average effective concentration, M07e (M07e [11]; [33]): Inactive; average effective concentration, ML-2 (ML2; [30]): Inactive; average effective concentration, CHRF288-11 (CHRF288-11 [12]; [34]): Inactive; average effective concentration, MOLM-13 (MOLM-13 [13]; [35]): Inactive; average effective concentration, CMS (CMS [15]; [36]): Inactive; average effective concentration, CMK (CMK [16]; [37]): Inactive
Cn1ncnc1[C@H]1c2n[nH]c(=O)c3cc(F)cc(c23)N[C@@H]1c1ccc(F)cc1 [Talazoparib] |  |  |  |  |  |  |  |  | IC50 [17]: 1.98 to 2.46 µM
O=C(CCCCCCC(=O)Nc1ccccc1)NO [Vorinostat, reference compound] |  |  |  |  |  |  |  |  | EC50 (MV4-11 [10]; [22]): 0.79 µM; IC50 [17]: 0.304 to 2.89 µM

Reference: paper PMC6522510 (Nature Communications, 2019)
